Assay results as given in patent US8178678B2, “Bis-quaternary ammonium salts and methods for modulating neuronal nicotinic acetylcholine receptors” (University of Kentucky Research Foundation, priority 2006, dated 2012).

Key:
[1] = tested on: nicotinic receptors mediating S-nicotine-evoked [^3H]DA release in rat striatal slices; assay: Inhibition of S-nicotine-evoked [^3H]dopamine release from superfused rat striatal slices; assay type: cell-based; conditions: 1 h; 100 nM analog superfused 60 min before NIC 10 μM; rat striatal slices; read-out: [^3H]DA release, % inhibition of S-nicotine-evoked release
Procedure: Rat striatal slices (500 μm thickness, 6-8 mg wet weight) were incubated for 30 minutes in Krebs buffer (118 mM NaCl, 4.7 mM KCl, 1.2 mM MgCl2, 1.0 mM NaH2PO4, 1.3 mM CaCl2, 11.1 mM glucose, 25 mM NaHCO3, 0.11 mM L-ascorbic acid, and 0.004 mM disodium EDTA; pH 7.4, and saturated with 95% O2/5% CO2) in a metabolic shaker at 34° C. Slices were rinsed with 15 mL of fresh buffer and incubated for an additional 30 minutes in fresh buffer containing 0.1 μM [^3H]dopamine (DA; 6 slices/3 mL). Subsequently, slices were rinsed with 15 mL of fresh buffer and transferred to a glass superfusion chamber. Slices were superfused (1.0 mL/min) for 60 minutes with Krebs buffer containing nomifensine (10 μM) and pargyline (10 μM) and maintained at 34° C., pH 7.4, with continual aeration (95% O2/5% CO2). Two five minute samples (5 mL each) were collected to determine basal outflow of [^3H]DA. The bis-quaternary ammonium analogs were added to the superfusion buffer after the collection of the second sample and remained in the buffer until 12 consecutive five minute samples were collected. Subsequently, S-nicotine (NIC; 10 μM) was added to the buffer and an additional 12 consecutive five minute samples were collected. At the end of the experiment, each slice was solubilized and the [^3H] content of the tissue determined.
Radioactivity in the superfusate and tissue samples was determined by liquid scintillation spectroscopy. Fractional release for tritium collected in each sample was divided by the total tritium present in the tissue at the time of sample collection and was expressed as a percentage of total tritium. Basal [^3H]outflow was calculated from the average of the tritium collected in the two five minute samples just before addition of the quaternary analog. The sum of the increase in collected tritium resulting from either exposure to the test compound or exposure to S-nicotine in the absence and presence of the test compound equaled total [^3H]overflow. [^3H]Overflow was calculated by subtracting the [^3H]outflow during an equivalent period of prestimulation from the values in samples collected during and after drug exposure. Inasmuch as the radiolabelled compounds were not separated and identified, the tritium collected in superfusate is referred to as either [3H]outflow or [^3H]overflow, rather than as [^3H]DA. [^3H]Overflow primarily represents [^3H]DA in the presence of nomifensine and pargyline in the superfusion buffer.
The bis-quaternary ammonium analogs were also evaluated for their ability to inhibit NIC evoked [^3H]DA release. In these experiments, the striatal slices were superfused for 60 minutes with 100 nM concentration of the quaternary analogs prior to NIC (10 μM) exposure. Antagonist activity was evaluated by comparing the NIC-evoked [^3 H]overflow in the absence and presence of the analogs. The relative order of potency of the quaternary analogs for inhibition of NIC-evoked [^3H]DA release from rat striatal slices is illustrated in Table 1.
^aData are % inhibition at 100 nM concentration of the bis-quaternary ammonium analogs for at least 1-3 independent experiments; with the exception of when a Ki value in μM is provided, in which case a full concentration effect was evaluated. Specific binding in the [^3H]NIC binding assay is calculated as the difference between the total binding of 3 nM [^3H]NIC and nonspecific binding in the presence of 10 μM cold cytisine. Specific binding for the [^3H]MLA binding assay is calculated as the difference between the total binding of […] [^3H]MLA to the receptors alone and its nonspecific binding in the presence of […] cold S-nicotine. Analog-induced inhibition of S-nicotine-evoked [^3H]DA release is calculated as a percent of that in the absence of the bis-quaternary ammonium analog.

[2] = biological target: T1, Rat Striatal Nicotinic Receptors ([^3H]MLA binding sites; α7) (Rattus norvegicus, UniProt Q05941); assay: Inhibition of [^3H]MLA (methyllycaconitine) binding; conditions: 100 nM analog; [^3H]MLA; nonspecific S-nicotine; rat brain membranes; read-out: [^3H]MLA binding, % inhibition
T1 construct: Whole brain, excluding cortex and cerebellum, was homogenized in 20 vol of ice-cold buffer; from tissue; host or cells: rat brain membranes (whole brain excluding cortex and cerebellum)
T1 sequence (Q05941 23-502): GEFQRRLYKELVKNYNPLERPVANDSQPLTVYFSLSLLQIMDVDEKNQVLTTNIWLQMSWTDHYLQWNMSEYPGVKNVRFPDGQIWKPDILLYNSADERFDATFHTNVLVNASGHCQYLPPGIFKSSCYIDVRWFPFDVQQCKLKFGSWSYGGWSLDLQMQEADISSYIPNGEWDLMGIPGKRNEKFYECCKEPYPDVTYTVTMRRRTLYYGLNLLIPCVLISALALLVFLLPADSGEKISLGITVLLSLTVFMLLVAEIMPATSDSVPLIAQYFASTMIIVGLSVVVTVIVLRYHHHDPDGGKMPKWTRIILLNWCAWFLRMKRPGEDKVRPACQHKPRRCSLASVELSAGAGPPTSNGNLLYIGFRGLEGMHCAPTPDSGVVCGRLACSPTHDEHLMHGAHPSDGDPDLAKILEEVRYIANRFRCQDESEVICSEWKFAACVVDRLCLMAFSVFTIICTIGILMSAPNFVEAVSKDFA
Procedure: Homogenate was centrifuged (25,000 g, 15 min, 4° C). Pellets were resuspended in 20 vol buffer and incubated at 37° C., for 10 min, cooled to 4° C. and centrifuged (25,000 g, 15 min, 4° C.). Pellets were resuspended and centrifuged using the same conditions. […] Upon use, final pellets were resuspended in 20 vol assay buffer. Samples (250 μl) contained 100-140 μg of membrane protein, 3 nM [^3H]-S-nicotine or 3 nM [^3H]-methyllycaconitine (MLA), and bis-quaternary ammonium analog (100 nM) in assay buffer containing 50 mM Tris. Control was in the absence of analog. In [^3H]-S-nicotine and [^3H]-methyllycaconitine binding assays, nonspecific binding was determined in the presence of 10 μM cytisine and 10 μM S-nicotine, respectively. Incubations proceeded for 60 min at room temperature using 96-well plates and were terminated by harvesting on Unifilter-96 GF/B filter plates presoaked in 0.5% polyethylenimine, using a Packard FilterMate harvester. After washing 5 times with 350 μl ice-cold assay buffer, filter plates were dried (60 min, 4° C.), bottom-sealed, and filled with Packard's MicroScint 20 cocktail (40 μl/well). After 60 min, filter plates were top-sealed, and radioactivity determined using a Packard TopCount. Protein concentrations were determined using the Bradford dye-binding procedure bovine serum albumin as the standard. […]

[3] = biological target: T2, Rat Striatal Nicotinic Receptors ([^3H]NIC binding sites; α4β2) (Rattus norvegicus, UniProt P09483+P12390); assay: Inhibition of [^3H]NIC binding; conditions: 1 h; 100 nM analog; 3 nM [^3H]NIC; nonspecific 10 μM cytisine; rat brain membranes
T2 construct: Whole brain, excluding cortex and cerebellum, was homogenized in 20 vol of ice-cold buffer; from tissue; host or cells: rat brain membranes (whole brain excluding cortex and cerebellum)
T2 sequence (P09483 31-630): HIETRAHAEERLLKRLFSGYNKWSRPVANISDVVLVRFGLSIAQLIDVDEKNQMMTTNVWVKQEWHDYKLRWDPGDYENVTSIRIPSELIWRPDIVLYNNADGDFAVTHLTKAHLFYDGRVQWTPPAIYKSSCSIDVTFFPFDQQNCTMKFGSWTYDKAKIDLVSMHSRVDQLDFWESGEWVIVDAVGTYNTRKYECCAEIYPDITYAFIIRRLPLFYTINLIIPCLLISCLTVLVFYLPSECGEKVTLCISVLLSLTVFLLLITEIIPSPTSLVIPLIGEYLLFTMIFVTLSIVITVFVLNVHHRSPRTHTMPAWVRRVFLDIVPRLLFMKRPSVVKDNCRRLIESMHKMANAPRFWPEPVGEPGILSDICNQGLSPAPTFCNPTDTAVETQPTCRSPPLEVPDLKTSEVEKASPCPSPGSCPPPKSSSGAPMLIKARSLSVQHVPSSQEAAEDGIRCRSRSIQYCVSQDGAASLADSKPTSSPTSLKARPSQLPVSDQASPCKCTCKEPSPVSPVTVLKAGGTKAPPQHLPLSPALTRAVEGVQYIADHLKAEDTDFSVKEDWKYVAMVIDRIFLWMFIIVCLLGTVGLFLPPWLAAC
T2 sequence (P12390 25-500): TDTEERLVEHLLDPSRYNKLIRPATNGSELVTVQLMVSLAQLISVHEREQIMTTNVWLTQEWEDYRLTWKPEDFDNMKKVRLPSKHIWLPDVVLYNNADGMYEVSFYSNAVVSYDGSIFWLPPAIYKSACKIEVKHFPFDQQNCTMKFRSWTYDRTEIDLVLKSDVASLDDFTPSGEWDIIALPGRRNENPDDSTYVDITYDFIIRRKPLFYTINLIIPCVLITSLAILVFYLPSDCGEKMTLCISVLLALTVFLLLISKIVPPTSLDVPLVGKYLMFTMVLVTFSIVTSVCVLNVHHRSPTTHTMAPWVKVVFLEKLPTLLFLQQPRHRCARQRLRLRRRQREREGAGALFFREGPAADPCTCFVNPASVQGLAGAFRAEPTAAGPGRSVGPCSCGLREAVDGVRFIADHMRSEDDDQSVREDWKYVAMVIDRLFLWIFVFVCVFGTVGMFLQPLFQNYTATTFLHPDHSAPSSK
Procedure: Homogenate was centrifuged (25,000 g, 15 min, 4° C). Pellets were resuspended in 20 vol buffer and incubated at 37° C., for 10 min, cooled to 4° C. and centrifuged (25,000 g, 15 min, 4° C.). Pellets were resuspended and centrifuged using the same conditions. […] Upon use, final pellets were resuspended in 20 vol assay buffer. Samples (250 μl) contained 100-140 μg of membrane protein, 3 nM [^3H]-S-nicotine or 3 nM [^3H]-methyllycaconitine (MLA), and bis-quaternary ammonium analog (100 nM) in assay buffer containing 50 mM Tris. Control was in the absence of analog. In [^3H]-S-nicotine and [^3H]-methyllycaconitine binding assays, nonspecific binding was determined in the presence of 10 μM cytisine and 10 μM S-nicotine, respectively. Incubations proceeded for 60 min at room temperature using 96-well plates and were terminated by harvesting on Unifilter-96 GF/B filter plates presoaked in 0.5% polyethylenimine, using a Packard FilterMate harvester. After washing 5 times with 350 μl ice-cold assay buffer, filter plates were dried (60 min, 4° C.), bottom-sealed, and filled with Packard's MicroScint 20 cocktail (40 μl/well). After 60 min, filter plates were top-sealed, and radioactivity determined using a Packard TopCount. Protein concentrations were determined using the Bradford dye-binding procedure bovine serum albumin as the standard.
Specific binding in the [^3H]NIC binding assay is calculated as the difference between the total binding of 3 nM [^3H]NIC and nonspecific binding in the presence of 10 μM cold cytisine. […] Analog-induced inhibition of S-nicotine-evoked [^3H]DA release is calculated as a percent of that in the absence of the bis-quaternary ammonium analog.

SMILES	inhibition at 0.1 µM [1] [%]	inhibition at 0.1 µM [2] [%]	inhibition at 0.1 µM [3] [%]
OCCCc1ccc[n+](CCCCc2ccc(CCCC[n+]3cccc(CCCO)c3)cc2)c1 [Example 17, N,N′-[1,4-phenylenedi-(4-butanyl)]-bis-[3-(3-hydroxy-propyl)-pyridinium]dibromide]	40	3	0
Cc1cccc[n+]1CCCC#Cc1ccccc1C#CCCC[n+]1ccccc1C [Example 23, 1,2-bis-[5-(2-methyl-pyridinium)-pent-1-ynyl]-benzene dibromide]	25	1.2	2.1
Cc1ccc[n+](CCCC#Cc2ccccc2C#CCCC[n+]2cccc(C)c2)c1 [Example 24, 1,2-bis-[5-(3-methyl-pyridinium)-pent-1-ynyl]-benzene dibromide]	46	0	3.9
Cc1cc[n+](CCCC#Cc2ccccc2C#CCCC[n+]2ccc(C)cc2)cc1 [Example 25, 1,2-bis-[5-(4-methyl-pyridinium)-pent-1-ynyl]-benzene dibromide]	12	5.4	2.5
Cc1cc[n+](CCCC#Cc2ccccc2C#CCCC[n+]2ccc(C)cc2C)c(C)c1 [Example 26, 1,2-bis-[5-(2,4-dimethyl-pyridinium)-pent-1-ynyl]-benzene dibromide]	18	0	0
Cc1cc[n+](CCCC#Cc2ccccc2C#CCCC[n+]2ccc(C)c(C)c2)cc1C [Example 27, 1,2-bis-[5-(3,4-dimethyl-pyridinium)-pent-1-ynyl]-benzene dibromide]	23	4.2	4.2
Cc1cc(C)c[n+](CCCC#Cc2ccccc2C#CCCC[n+]2cc(C)cc(C)c2)c1 [Example 28, 1,2-bis-[5-(3,5-dimethyl-pyridinium)-pent-1-ynyl]-benzene dibromide]	19	5	1.3
C(#Cc1ccccc1C#CCCC[n+]1cccc2ccccc21)CCC[n+]1cccc2ccccc21 [Example 29, 1,2-bis-(5-quinolinium-pent-1-ynyl)-benzene dibromide]	20	2.3	0
C(#Cc1ccccc1C#CCCC[n+]1ccc2ccccc2c1)CCC[n+]1ccc2ccccc2c1 [Example 30, 1,2-bis-(5-isoquinolinium-pent-1-ynyl)-benzene dibromide]	24	1.1	1.6
CN1CCC[C@@H]1c1ccc[n+](CCCC#Cc2ccccc2C#CCCC[n+]2cccc([C@@H]3CCCN3C)c2)c1 [Example 31, 1,2-bis-[5-(2′-S-nicotinium-pent-1-ynyl)]benzene dibromide]	35	9.2	72
Cc1cccc[n+]1CCCCCc1ccccc1CCCCC[n+]1ccccc1C [Example 34, 1,2-bis-[5-(2-methyl-pyridinium)-pentyl]-benzene dibromide]	8	7.6	0
Cc1ccc[n+](CCCCCc2ccccc2CCCCC[n+]2cccc(C)c2)c1 [Example 35, 1,2-bis-[5-(3-methyl-pyridinium)-pentyl]-benzene dibromide]	25	5.4	0
Cc1cc[n+](CCCCCc2ccccc2CCCCC[n+]2ccc(C)cc2)cc1 [Example 36, 1,2-bis-[5-(4-methyl-pyridinium)-pentyl]-benzene dibromide]	11	3.1	0
Cc1cc[n+](CCCCCc2ccccc2CCCCC[n+]2ccc(C)cc2C)c(C)c1 [Example 37, 1,2-bis-[5-(2,4-dimethyl-pyridinium)-pentyl]-benzene dibromide]	20	4.8	0
Cc1cc(C)c[n+](CCOCCOCCOCC[n+]2cc(C)cc(C)c2)c1 [Example 90, N,N′-{2,2′-[oxybis-(2,1-ethandiyloxy)]bis-ethyl}-bis-(3,5-dimethylpyridinium)dichloride]	–	5	10
Cc1ccc[n+](CC#Cc2ccc(-c3ccc(C#CC[n+]4cccc(C)c4)cc3)cc2)c1 [Example 102, N,N′-[(1,1′-biphenyl)-4,4′-di-(1-propyn-3-yl)]-bis-(3-methylpyridinium)dibromide]	–	12	9.4
Cc1cc[n+](CC#Cc2ccc(-c3ccc(C#CC[n+]4ccc(C)cc4)cc3)cc2)cc1 [Example 103, N,N′-[(1,1′-biphenyl)-4,4′-di-(1-propyn-3-yl)]-bis-(4-methylpyridinium)dibromide]	–	12	9.6
Cc1cc[n+](CC#Cc2ccc(-c3ccc(C#CC[n+]4ccc(C)c(C)c4)cc3)cc2)cc1C [Example 104, N,N′-[(1,1′-biphenyl)-4,4′-di-(1-propyn-3-yl)]-bis-(3,4-dimethylpyridinium)dibromide]	–	16	19
